Measurements: patent US20240299560A1, “DEOXYCHOLIC ACID-PEPTIDE CONJUGATE HAVING ANTI-OBESITY ACTIVITY AND USE THEREOF” (CAREGEN CO, LTD., priority 2020, published 2024)
Where a SMILES comes first, the peptide text is derived from it. [ ]: non-standard residue; d: D form. The star is where a group is joined. ξ: configuration not given here. Deoxycholoyl = C[C@H](CCC(=O)*)[C@H]1CC[C@H]2[C@@H]3CC[C@@H]4C[C@H](O)CC[C@]4(C)[C@H]3C[C@H](O)[C@]12C; ξF = NC(Cc1ccccc1)C(=O)O; ξL = CC(C)CC(N)C(=O)O; ξK = NCCCCC(N)C(=O)O; ξNva = CCCC(N)C(=O)O

Columns and labels:
white adipose tissue = experiment: Glycerol release (lipolysis) from cultured adipose tissue; assay type: cell-based, mice; settings: for glycerol release amount: 1 μM, adipose tissue
Protocol: Neutral fat stored in adipose tissue was decomposed into fatty acids and glycerol for energy production or cell signaling. Therefore, the lipolysis effect of neutral fat accumulated in the adipose tissue was confirmed by measuring the release amount of free glycerol.
Specifically, in female mice fed with a high-fat diet (Rodent Diet with 60% Kcal Fat, Research Diets, USA), a fat pad, which was white adipose tissue, was isolated, and each 400 mg of adipose tissue per well was placed in a 12-well plate, and then cultured for 48 hours in a culture medium (DMEM media serum free) to be stabilized. During the culture, the peptide conjugate was treated at concentrations of 1 μM, 10 μM, and 100 μM, and as a positive control group, 20 nM of TNFα was treated and cultured for 48 hours to obtain a supernatant, and the amount of glycerol was measured using a glycerol colorimetric assay kit (Cayman chemical, USA).
(§1) In order to compare the lipolysis effects in the case of treating the deoxycholic acid-peptide conjugate and the case of treating the deoxycholic acid or the peptide of SEQ ID NO: 1 alone, the amount of glycerol released from the adipose tissue was measured in the same manner as in Experimental Example 3-1. A group treated with TNF-α was used as a positive control group.

3T3-L1 cells = experiment: Oil red O staining of fat accumulation in differentiated adipocytes; assay type: cell-based; settings: 1 μM, 3T3-L1 adipocytes; for lipid accumulation amount: oil red O absorbance 510 nm
Protocol: 3T3-L1 cells as preadipocytes were purchased from the American Type Culture Collection (ATCC) and used in an experiment. 3T3-L1 was a cell line widely used to study the metabolic process of adipocytes, and as the differentiation of the cells was activated, fat accumulation in adipocytes was activated to induce obesity.
(§2) The preadipocytes 3T3-L1 were cultured in a DMEM containing 2% fetal bovine serum (FBS) under conditions of 37° C. and 5% CO2. The preadipocytes 3T3-L1 were dispensed in a 12-well plate at a density of 1×10^5 cells/well, and then further maintained for 2 days at a 100% confluency point. The preadipocytes were cultured for 2 days in a DMEM medium (hereinafter referred to as a ‘differentiation medium’) containing a differentiation ingredient (including 10 μg/ml insulin, 0.1 μM dexamethasone and 0.5 mM IBMX) and 10% FBS to induce the differentiation into adipocytes. After 48 hours of culture, the preadipocytes were cultured for 2 days in 10% FBS DMEM (hereinafter referred to as a ‘culture medium’) containing 1 μg/ml insulin. Thereafter, the culture medium was replaced with a 10% FBS DMEM culture medium every 2 days. During the induction of adipocytes differentiation, depending on a purpose of the experiment, a deoxycholic acid-peptide conjugate was treated or not in each culture medium at a concentration of 1 μM or 10 μM, and the differentiation degree of adipocytes was observed on day 7, when the differentiation was completed.
Specifically, the degree of differentiation of adipocytes induced in Preparation Example 1 was first confirmed under a microscope through oil red O staining, and for the staining degree of adipocytes, the degree of fat accumulated in the cells was calculated by measuring absorbance with a spectrophotometer at a wavelength of 510 nm. A group treated with a β3 adrenergic receptor agonist CL316243 or TNF-α was used as a positive control group.
as §1, with “fat accumulation inhibitory” for “lipolysis”, “degree” for “amount”, “differentiation of adipocytes and” for “glycerol released from”, “degree of lipid accumulation were” for “adipose tissue was”, “1-1.” for “3-1.”

[1] = Solubility in water, visual observation; assay type: physicochemical; settings: 1 mg in 90 μL distilled water
Protocol: Solubilities of the deoxycholic acid-peptide conjugate prepared in Example 2 and deoxycholic acid were visually observed and compared.
Specifically, 90 μL of distilled water was added to an E. tube containing 1 mg each of the deoxycholic acid-peptide conjugate and the deoxycholic acid, and dissolution was confirmed.

HSL and PLIN genes = experiment: RT-PCR of lipolysis genes in adipose tissue; assay type: cell-based, BL/6 mice; settings: 1 and 10 μM, 72 hours
Protocol: (§3) Adipose tissue was collected from the abdomen of 9-week-old BL/6 mice, placed in a 100 mm×15 mm culture dish, and then cultured in a culture medium overnight. The adipose tissue was divided to have the same weight, transferred to a 24-well plate, and then used in the following Experimental Examples.
(§4) The adipocytes obtained in Preparation Example 1 or the adipose tissue obtained in Preparation Example 2 were treated with the deoxycholic acid-peptide conjugate of the present invention, cultured, and then recovered, and RNA was extracted with Trizol (Thermo Fisher Scientific, USA). From the extracted RNA, complementary DNA to RNA was obtained using TOPScript™ RT DryMIX (enzynomics, Korea) and then polymerase chain reaction (PCR) was performed using TOPsimple™ DryMIX-nTaq (enzynomics, Korea). Thereafter, PCR products were loaded on a 1.5% agarose gel to compare the mRNA expression levels of the growth factors.
Specifically, the adipose tissue obtained in Preparation Example 2 was treated with 1 μM and 10 μM of the deoxycholic acid-peptide conjugate and 1 μM of CL316243 (Sigma, USA) as a positive control group and cultured for 72 hours. […]

[2] = system: IL-15 gene in C2C12 cells; experiment: RT-PCR of IL-15 gene in muscle cells; assay type: cell-based, mouse; settings: 1 and 10 μM; 6 hours; C2C12 myotubes
Protocol: as §4
Specifically, C2C12 cells, which were mouse myoblasts, were inoculated into a 6-well plate at a density of 2×10^5 cells/well, and then cultured in a DMEM (10% FBS) medium for 3 days. When the cells had grown to about 70 to 80% of the plate, the medium was replaced with a differentiation medium (DMEM, 5% horse serum) and then cultured for 3 days. Thereafter, the medium was replaced with the differentiation medium (DMEM, 2% horse serum) and cultured for 4 days to induce differentiation from myoblasts to myotubes. Then, the medium was replaced with a serum-free medium and cultured for 2 hours, and treated with 1 μM and 10 μM of the deoxycholic acid-peptide conjugate for 6 hours and cultured in an environment of 37° C. and 5% CO2. […]

AMPKa1, HSL, PGC1a genes = experiment: RT-PCR of lipolysis-related genes in adipocytes; assay type: cell-based; settings: 1 and 10 μM; 24 hours; differentiated adipocytes
Protocol: as §2, §4
Specifically, the differentiated adipocytes obtained in Preparation Example 1 were treated with 1 μM and 10 μM of the deoxycholic acid-peptide conjugate, and then cultured for 24 hours. […]

[3] = system: adiponectin and leptin genes; experiment: RT-PCR of fat metabolism genes in adipocytes; assay type: cell-based; settings: 1 and 10 μM, 1, 3, 6 hours
Protocol: as §2, with “completed. […]” for “completed.”

[4] = system: ACCα, FAS and PPARγ genes; experiment: RT-PCR of adipogenesis genes in adipose tissue; assay type: cell-based, BL/6 mice; settings: 1 and 10 μM, 72 hours
Protocol: as §3, §4
(§5) Specifically, the adipose tissue obtained in Preparation Example 2 was treated with 1 μM and 10 μM of the deoxycholic acid-peptide conjugate and 1 μM of CL316,243 (Sigma, USA) as a positive control group and further cultured for 72 hours. After the cells were recovered and the polymerase chain reaction was performed by the method described in Experimental Example 4-1, the expression products were loaded on an agarose gel to confirm the mRNA expression levels of genes related to adipogenesis.

[5] = system: UCP1, PRDM and Cidea genes; experiment: RT-PCR of thermogenesis-related genes of brown adipocytes in adipose tissue; assay type: cell-based, BL/6 mice; settings: 1 and 10 μM, 72 hours
Protocol: as §3, §4, §5

adipose tissue = experiment: H&E staining, size of adipocytes in adipose tissue; assay type: cell-based, BL/6 mice; settings: vs control group
Protocol: as §3
In order to confirm the lipolysis effect in adipose tissue by the deoxycholic acid-peptide conjugate, H&E staining was performed on the adipose tissue obtained in Preparation Example 2 to confirm the sizes of adipocytes.
Specifically, the adipose tissue was cut, attached to a paraffin slide, and dried at 50° C. The slide attached with the dried adipose tissue was placed in Xylene 1, 2, and 3 for 5 minutes each, and the paraffin was removed. Thereafter, the slide was put into 100% ethanol for 2 minutes, and then sequentially put into 90%, 80%, and 70% ethanol to be re-hydrated. The re-hydrated slide was stained in a hematoxylin solution, washed, and then stained with Eosin Y. Thereafter, the slide was sequentially put into 90%, 80%, and 70% ethanol, and then put into Xylene 3, 2, and 1, and then mounted with a xylene-based mounting medium to prevent air bubbles from entering the tissue, and then dried. Then, the dried slide was observed under an optical microscope.

Compound	glycerol release amount (white adipose tissue) [%]	lipid accumulation amount (3T3-L1 cells) [%]	solubility in water (dissolution, visual) [1]	amount of glycerol released (white adipose tissue; 1, 10, 100 μM, 48 hours, adipose tissue of high-fat diet mice, vs control group)	HSL mRNA expression (HSL and PLIN genes)	PLIN mRNA expression (HSL and PLIN genes)	fat staining in adipocytes (oil red O) (3T3-L1 cells; day 7, positive control CL316243 or TNF-α)	IL-15 mRNA expression [2]	AMPKa1 mRNA expression (AMPKa1, HSL, PGC1a genes)	HSL mRNA expression (AMPKa1, HSL, PGC1a genes)	PGC1a mRNA expression (AMPKa1, HSL, PGC1a genes)	adiponectin mRNA expression [3]	leptin mRNA expression [3]	ACCα mRNA expression [4]	FAS mRNA expression [4]	PPARγ mRNA expression [4]	Cidea mRNA expression [5]	PRDM mRNA expression [5]	UCP1 mRNA expression [5]	sizes of adipocytes (adipose tissue)
C[C@H](CCC(=O)O)[C@H]1CC[C@H]2[C@@H]3CC[C@@H]4C[C@H](O)CC[C@]4(C)[C@H]3C[C@H](O)[C@]12C [deoxycholic acid, 3,12-dihydroxycholan-24-oic acid]	116	93	hardly dissolved																	
CCCC(NC(=O)C(CC(C)C)NC(=O)C(Cc1ccccc1)NC(=O)C(CCCCN)NC(=O)CC[C@@H](C)[C@H]1CC[C@H]2[C@@H]3CC[C@@H]4C[C@H](O)CC[C@]4(C)[C@H]3C[C@H](O)[C@]12C)C(=O)NC(CCCCN)C(=O)O (stereo partly shown) [deoxycholic acid-peptide conjugate] (Deoxycholoyl-[ξK][ξF][ξL][ξNva][ξK]-OH)	175	78	completely dissolved	increased in a concentration-dependent manner	increased in a concentration dependent manner	increased in a concentration dependent manner	reduced at the same level as the positive control group	increased	increased	increased	increased	increased	increased	decreased	decreased	decreased	increased	increased	increased	decreased
Lys Phe Leu Ile Lys (KFLIK) [peptide of SEQ ID NO: 1]	106	89																		
